GI50 and TGI data for 24 compounds are collected here from PubChem BioAssay (NCI).

Common to all, as to test: inhibition of tumour cell growth, NCI panel, 48 h
Experiment [1] relates to MDA-N.
Experiment [2] has as its system PC-3 prostate.
The subject of experiment [3] is MDA-MB-435.
Experiment [4] has as its system DMS 114 small cell lung.
Experiment [5] relates to DMS 273 small cell lung.
The test system of experiment [6] is DLD-1 colon.
Experiment [7] concerns NCI/ADR-RES ovarian.
Experiment [8] has as its system RXF-631 renal.
In experiment [9] the test system is SNB-78 CNS.

Where “and” joins values, the source holds several entries; their conditions need not be identical. Equal values may be shown once.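 Five compound concentrations were applied to cells in 96-well plates for 48 hours; endpoints were derived by simple linear interpolation of the resulting dose-response curve. Abbreviation: GI50, concentration required for 50% inhibition of growth. TGI denotes the concentration required for complete inhibition of growth.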

As for `CC(C)(C)c1cc(C=C(C#N)C#N)cc(C(C)(C)C)c1O`, the GI50 in experiment [1] was 0.346 µM; in experiment [2] it was 0.0354 µM; in [3], 0.252 µM; in experiment [7], 0.0629 µM. The TGI is 56.7 µM in [1]; 3.36 µM and 4.17 µM in [2]; 29.9 µM and 12.4 µM in experiment [3]; 7.3 µM in experiment [4]; 5.51 µM in experiment [5]; 42.7 µM in experiment [6]. In addition, the TGI in experiment [7] was 15.1 µM and 41.5 µM.
Regarding `C/C(=N/NC(=O)C[N+](C)(C)C)C(CN(C)C)C(=O)Nc1ccccc1` (stereo not drawn), the TGI in experiment [4], in experiment [5] and in experiment [6] was greater than 100 µM each time.
Turning to `COc1ccc(C(=O)NCCN(C)C)c2nc3ccccc3nc12`, the TGI in [8] is greater than 100 µM; in [4], 12.5 µM; in experiment [5], greater than 100 µM; in [6] it was greater than 65.4 µM; in experiment [9], 38.4 µM.
`COC(=O)C(/C(=N\O)C(=O)Nc1cccc(Cl)c1C)c1cnc2ccccc2n1` (stereo not drawn): the TGI in experiment [1], in experiment [2], in experiment [3] and in experiment [7] was greater than 100 µM throughout.
In the case of `CC(C)(C)C(=O)[CH-]C(=O)C(C)(C)C.CC(C)(C)C(=O)[CH-]C(=O)C(C)(C)C.CN(C)c1ccc([O-])cc1.CN(C)c1ccc([O-])cc1.[Ti+4]`, the GI50 in experiment [8], in experiment [4], in [5], in experiment [6] and in experiment [9] was greater than 100 µM throughout. The TGI in [8], in experiment [4], in [5], in experiment [6] and in [9] was greater than 100 µM each time.
With `O=c1oc2ccccc2[n+]([O-])c1-c1ccccc1`, the TGI in experiment [8], in experiment [4], in experiment [5], in [6] and in experiment [9] was greater than 100 µM each time.
In the case of `NC(=S)NN/C=C(\C=Nc1ccccc1)[N+](=O)[O-]`, the TGI in experiment [4] and in [6] was greater than 100 µM throughout.
`O=C(O)c1ccccc1/C=N/N=C1c2ccccc2-c2ccccc21`: the TGI in [1] was greater than 100 µM; in experiment [2] it was 83.4 µM; in experiment [3], greater than 100 µM; in experiment [7], greater than 100 µM.
`N/N=C1\C(=O)N(CCc2ccccc2)C(=O)C1C(=O)NCCc1ccccc1` (stereo not drawn): the TGI in [8], in [5], in [6] and in [9] was greater than 100 µM throughout.
On to `C/C(=N\NC(=O)CC#N)c1c(O)cc(C)oc1=O`, for which the TGI in experiment [8], in experiment [6] and in experiment [9] was greater than 100 µM throughout.
`O=C(/C=C/c1ccccc1)CC(=O)CCC(=O)Nc1ccc(Cl)cc1`: the TGI in experiment [4], in experiment [5], in experiment [6] and in experiment [9] was greater than 100 µM in each case.
`CCOC(=O)C1SC(=Nc2ccc(Cl)cc2)N=C1C` (stereo not drawn): the values for the TGI in experiment [4], in experiment [6] and in [9] were 81 µM, 28.7 µM and 89.3 µM, respectively.
On to `Cc1cc(N(CCC#N)CCC#N)ccc1/C=C(\NC(=O)/C=C/c1ccccc1)C(=O)NN`, for which the TGI in experiment [1], in [2], in experiment [3], in [4], in [5] and in experiment [6] was greater than 100 µM in each case. The TGI in experiment [9] and in experiment [7] was greater than 100 µM throughout.
For the compound `O=C(/C=C/c1ccccc1)c1ccc(NCc2nc3ccccc3[nH]2)cc1`, the TGI in [4] is 12.4 µM; in experiment [5] it was 16 µM; in experiment [6] it was 15.6 µM; in [9], 20.7 µM.
Regarding `CCCCN(CC)CC(C(C)=O)c1c(O)c2ccccc2oc1=O` (stereo not drawn), the TGI in experiment [4], in experiment [5], in experiment [6] and in [9] was greater than 100 µM each time.
As for `CSC1=Nc2ccccc2N=C(c2ccc(Cl)cc2)C1`, the TGI in experiment [6] and in experiment [9] was greater than 100 µM in each case.
`Cc1c2ccccc2cc2ccc3oc([N+](=O)[O-])cc3c12`: the TGI in experiment [4], in [5], in experiment [6] and in [9] was greater than 100 µM each time.
For `CC(=O)OCC1OC(N2C(=O)C(=O)c3ccccc32)C(OC(C)=O)C(OC(C)=O)C1OC(C)=O` (stereo not drawn), the TGI in experiment [8], in experiment [4], in experiment [5] and in [6] was greater than 100 µM throughout.
On to `c1c[nH]c(CN2CCOCC2)n1`, for which the TGI in experiment [1], in [2], in experiment [3] and in [7] was greater than 100 µM each time.
With `COc1cc2c(cc1OC)C(C(=O)c1cccc(OC)c1OC)C(=O)N(C)CC2` (stereo not drawn), the TGI in [8], in experiment [4], in experiment [5] and in [6] was greater than 100 µM each time.
With `COc1ccc(/C(=N\NC(=S)NN)C(c2ccc(OC)cc2)C2C(=O)Oc3ccccc32)cc1` (stereo not drawn), the TGI in experiment [4], in [5], in experiment [6] and in [9] was greater than 100 µM throughout. The GI50 in experiment [5], in [6] and in [9] was greater than 100 µM each time.
In the case of `O=C(O)[C@H](c1ccccc1)[C@@H](C(=O)O)c1ccccc1`, the TGI in experiment [1], in experiment [2], in experiment [3] and in experiment [7] was greater than 100 µM throughout.
Regarding `O=C1CCCCN1CCCCC#Cc1cccc(C#Cc2cccnc2)c1`, the GI50 in experiment [2] is 11.6 µM; in [3], 28.9 µM; in experiment [7], 17.5 µM. Besides, the TGI in [2] was greater than 100 µM; in [3] it was greater than 100 µM; in [7] it was 85.4 µM.
As to `C[N+](C)(C)CC1CCCCC1O` (stereo not drawn), the TGI in experiment [8], in [5], in experiment [6] and in [9] was greater than 100 µM in each case.
